pIC50: −log10 of the molar value.
Key:
Stromelysin-1 = Stromelysin-1 (Homo sapiens, UniProt P08254); test: In vitro inhibition of Matrix metalloprotease-3
[1] = Half life determined after intravenous administration at a dose of 3 mg/kg in cynomolgus monkey; format: ADME, organism-based, Macaca fascicularis; design: dose 3 mg/kg, route intravenous; conditions: in vivo
[2] = Oral bioavailability in cynomolgus monkey; format: ADME, organism-based, Macaca fascicularis; conditions: in vivo
[3] = target: 72 kDa type IV collagenase (Homo sapiens, UniProt P08253); test: In vitro inhibition of Matrix metalloprotease-2
Chain of 72 kDa type IV collagenase (P08253 whole entry): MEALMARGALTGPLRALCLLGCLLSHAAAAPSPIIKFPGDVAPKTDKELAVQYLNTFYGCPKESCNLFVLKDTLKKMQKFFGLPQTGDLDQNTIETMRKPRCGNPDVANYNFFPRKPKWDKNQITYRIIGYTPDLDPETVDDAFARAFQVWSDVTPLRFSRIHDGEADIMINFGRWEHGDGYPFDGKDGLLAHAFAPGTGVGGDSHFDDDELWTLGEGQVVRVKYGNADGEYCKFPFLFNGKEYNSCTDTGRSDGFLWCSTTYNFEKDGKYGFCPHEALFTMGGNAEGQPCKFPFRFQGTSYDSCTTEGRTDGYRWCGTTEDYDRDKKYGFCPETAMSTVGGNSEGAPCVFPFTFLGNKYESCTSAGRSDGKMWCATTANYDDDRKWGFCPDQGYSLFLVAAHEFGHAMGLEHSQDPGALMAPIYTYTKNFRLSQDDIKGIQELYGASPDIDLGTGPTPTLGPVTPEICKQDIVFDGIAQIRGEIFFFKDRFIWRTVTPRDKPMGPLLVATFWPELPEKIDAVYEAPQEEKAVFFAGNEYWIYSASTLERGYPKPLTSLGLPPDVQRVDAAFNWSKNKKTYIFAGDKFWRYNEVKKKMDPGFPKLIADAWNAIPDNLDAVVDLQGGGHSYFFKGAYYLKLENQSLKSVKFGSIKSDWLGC

[4] = Area under curve determined after peroral administration at a dose of 3 mg/kg in cynomolgus monkey; format: ADME, organism-based, Macaca fascicularis; design: dose 3 mg/kg, route oral; conditions: in vivo, po
Interstitial collagenase = target: T1, Interstitial collagenase (Homo sapiens, UniProt P03956); test: In vitro inhibition of Matrix metalloprotease-1.
T1 sequence (P03956 whole entry): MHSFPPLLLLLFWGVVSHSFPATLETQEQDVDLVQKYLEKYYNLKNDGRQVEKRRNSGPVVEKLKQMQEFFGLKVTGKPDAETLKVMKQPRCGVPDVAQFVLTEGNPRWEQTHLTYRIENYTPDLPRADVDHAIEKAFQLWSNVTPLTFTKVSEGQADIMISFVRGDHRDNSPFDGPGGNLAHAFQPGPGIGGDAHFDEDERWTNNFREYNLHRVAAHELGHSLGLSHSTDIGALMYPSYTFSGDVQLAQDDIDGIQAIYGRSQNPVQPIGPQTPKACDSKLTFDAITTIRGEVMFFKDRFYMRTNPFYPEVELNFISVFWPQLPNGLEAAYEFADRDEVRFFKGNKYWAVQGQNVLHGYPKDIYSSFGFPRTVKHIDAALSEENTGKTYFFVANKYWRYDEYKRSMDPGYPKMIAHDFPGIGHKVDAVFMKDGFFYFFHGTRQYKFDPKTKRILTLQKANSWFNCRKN

[5] = Area under curve determined after intravenous administration at a dose of 3 mg/kg in cynomolgus monkey; format: ADME, organism-based, Macaca fascicularis; design: dose 3 mg/kg, route intravenous; conditions: in vivo
[6] = Oral Bioavailability in rat; format: ADME, organism-based; conditions: in vivo
[7] = Half life determined in rat by intravenous administration; format: ADME, organism-based; conditions: in vivo
[8] = Half life after iv administration in cynomolgus monkey; format: ADME, organism-based, Macaca fascicularis; conditions: in vivo
[9] = Area under curve determined after peroral administration at a dose of 10 mg/kg in cynomolgus monkey; format: ADME, organism-based, Macaca fascicularis; design: dose 10 mg/kg, route oral; conditions: in vivo, po
[10] = Bioavailability determined after oral administration in marmoset; format: ADME, organism-based; conditions: callitrichinae sp., in vivo

Chain of Stromelysin-1 (P08254 whole entry): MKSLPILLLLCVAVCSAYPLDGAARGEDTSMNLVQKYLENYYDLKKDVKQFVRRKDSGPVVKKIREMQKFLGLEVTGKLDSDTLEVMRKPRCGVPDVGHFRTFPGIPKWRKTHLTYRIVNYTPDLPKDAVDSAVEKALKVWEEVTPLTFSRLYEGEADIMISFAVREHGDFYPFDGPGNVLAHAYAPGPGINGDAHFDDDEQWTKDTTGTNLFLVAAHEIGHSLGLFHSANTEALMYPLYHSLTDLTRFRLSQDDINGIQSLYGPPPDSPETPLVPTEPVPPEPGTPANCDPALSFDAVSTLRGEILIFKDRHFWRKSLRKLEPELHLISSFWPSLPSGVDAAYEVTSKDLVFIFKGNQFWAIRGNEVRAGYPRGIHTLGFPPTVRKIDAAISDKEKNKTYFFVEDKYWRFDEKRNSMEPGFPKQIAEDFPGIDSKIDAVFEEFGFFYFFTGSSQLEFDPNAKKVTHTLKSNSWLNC

Row | SMILES | pIC50 (Stromelysin-1) | half-life [1] [h] | pIC50 [3] | pIC50 (Interstitial collagenase) | also measured
1 | N#Cc1ccc(-c2ccc(OCCC(=O)O)cc2)cc1 | < 8.00 | – | 5.10 | – | –
2 | CC(COc1ccc(-c2ccc(C#N)cc2)cc1)N(O)C=O (stereo unspecified) | 6.21 | – | 4.12 | < 5.00 | bioavailability [6]: 33%; half-life [7]: 1.6 h
3 | N#Cc1ccc(-c2ccc(OCC(c3ccc(F)cc3)N(O)C=O)cc2)cc1 (stereo unspecified) | 6.52 | – | – | < 5.00 | half-life [8]: < 1 h
4 | CC(C)CC(COc1ccc(-c2ccc(C#N)cc2)cc1)N(O)C=O (stereo unspecified) | 6.92 | – | – | < 5.00 | half-life [8]: < 1 h
5 | CC(=O)N(O)CCOc1ccc(-c2ccc(C#N)cc2)cc1 | – | – | 5.23 | – | –
6 | N#Cc1ccc(-c2ccc(OCC(COc3ccccc3)N(O)C=O)cc2)cc1 (stereo unspecified) | 6.89 | – | – | < 5.00 | half-life [8]: < 1 h
7 | N#Cc1ccc(-c2ccc(OCC(Cc3ccc(F)cc3)N(O)C=O)cc2)cc1 (stereo unspecified) | 6.74 | – | – | 4.85 | half-life [8]: < 1 h
8 | N#Cc1ccc(-c2ccc(OCCNC(=O)NO)cc2)cc1 | 7.10 | – | < 4.00 | < 7.30 | –
9 | N#Cc1ccc(-c2ccc(OCCN(O)C(N)=O)cc2)cc1 | < 7.00 | – | 4.46 | < 7.30 | –

Further lines, with some results ahead:

Row | pIC50 (Stromelysin-1) | half-life [1] [h] | pIC50 [3] | pIC50 (Interstitial collagenase) | SMILES | also measured
10 | 7.85 | 7.3 | 5.09 | 5.62 | N#Cc1ccc(-c2ccc(OCC(CN3C(=O)CNC3=O)N(O)C=O)cc2)cc1 (stereo unspecified) | bioavailability [2]: 100%; AUC [4]: 68 uM hr l-1; AUC [5]: 59.8 uM hr l-1
11 | 7.35 | – | 4.72 | 5.60 | CC(COc1ccc(-c2ccc(C#N)cc2)cc1)C(=O)NO (stereo unspecified) | bioavailability [6]: 7%; half-life [7]: 0.3 h
12 | 7.43 | 0.5 | 5.47 | 5.38 | Cc1ccc(=O)n(CC(COc2ccc(-c3ccc(C#N)cc3)cc2)N(O)C=O)n1 (stereo unspecified) | –
13 | 7.43 | – | 4.60 | 6.44 | CC1(C)CC(=O)N(CC(COc2ccc(-c3ccc(C#N)cc3)cc2)N(O)C=O)C(=O)C1 (stereo unspecified) | –
14 | 8.04 | 2.5 | 4.24 | – | CN1C(=O)N(CC(COc2ccc(-c3ccc(C#N)cc3)cc2)N(O)C=O)C(=O)C1(C)C (stereo unspecified) | bioavailability [2]: 23%; AUC [9]: 11.8 uM hr l-1; AUC [5]: 15.2 uM hr l-1
15 | 10.24 | – | 7.49 | 8.48 | N#Cc1ccc(-c2ccc(OCCC(=O)NO)cc2)cc1 | –
16 | 7.96 | 0.6 | 5.28 | < 5.00 | N#Cc1ccc(-c2ccc(OCC(CN3C(=O)CCC3=O)N(O)C=O)cc2)cc1 (stereo unspecified) | –
17 | 7.44 | 0.3 | – | 5.39 | N#Cc1ccc(-c2ccc(OCC(CSc3ccccc3)N(O)C=O)cc2)cc1 (stereo unspecified) | half-life [8]: < 1 h
18 | 7.57 | 1.8 | 4.92 | 5.62 | CCN1C(=O)N(CC(COc2ccc(-c3ccc(C#N)cc3)cc2)N(O)C=O)C(=O)C1(C)C (stereo unspecified) | AUC [5]: 12.3 uM hr l-1
19 | 7.62 | 7.7 | 5.11 | 5.68 | CC1(C)NC(=O)N(CC(COc2ccc(-c3ccc(C#N)cc3)cc2)N(O)C=O)C1=O (stereo unspecified) | bioavailability [10]: 85%; bioavailability [2]: 110%; AUC [4]: 27.2 uM hr l-1; AUC [5]: 24 uM hr l-1
20 | 7.77 | 0.5 | 4.35 | < 5.00 | CN1C(=O)N(CCC(COc2ccc(-c3ccc(C#N)cc3)cc2)N(O)C=O)C(=O)C1(C)C (stereo unspecified) | bioavailability [2]: 6%; AUC [9]: 1.8 uM hr l-1; AUC [5]: 8 uM hr l-1
21 | 7.68 | 0.3 | 4.43 | < 5.00 | N#Cc1ccc(-c2ccc(OCC(CN3C(=O)c4ccccc4C3=O)N(O)C=O)cc2)cc1 (stereo unspecified) | –
22 | 7.46 | 12.7 | 5.16 | 4.85 | CC1(C)NC(=O)N(CCC(COc2ccc(-c3ccc(C#N)cc3)cc2)N(O)C=O)C1=O (stereo unspecified) | bioavailability [2]: 6%; AUC [4]: 2.4 uM hr l-1; AUC [5]: 47.5 uM hr l-1
23 | 10.21 | – | 6.40 | < 7.30 | N#Cc1ccc(-c2ccc(OCCN(O)C=O)cc2)cc1 | –

Reference: ChEMBL document CHEMBL1134095, “Biaryl ether retrohydroxamates as potent, long-lived, orally bioavailable MMP inhibitors” (Bioorg Med Chem Lett, 2001)
